In ChEMBL document CHEMBL1275545, “Carbapenem-resistant Acinetobacter baumannii isolates expressing the blaOXA-23 gene associated with ISAba4 in Belgium” (2008):
Values after ≈ are worked out from the molar mass of the structure shown.

What follows are molecules tested on Acinetobacter baumannii (assay: Antibacterial activity against Acinetobacter baumannii GIL1 isolate harboring intrinsic blaOXA-51/69-like gene by Etest method).
Format: functional

Point of comparison: `CO[C@H]1/C=C/O[C@@]2(C)Oc3c(C)c(O)c4c(O)c(c(/C=N/N5CCN(C)CC5)c(O)c4c3C2=O)NC(=O)/C(C)=C\C=C\[C@H](C)[C@H](O)[C@@H](C)[C@@H](O)[C@@H](C)[C@H](OC(C)=O)[C@@H]1C` [RIFAMPIN], MIC 3 mg/L (≈ 3.65 µM). Against it:
- NCC[C@H](O)C(=O)N[C@@H]1C[C@H](N)[C@@H](O[C@H]2O[C@H](CN)[C@@H](O)[C@H](O)[C@H]2O)[C@H](O)[C@H]1O[C@H]1O[C@H](CO)[C@@H](O)[C@H](N)[C@H]1O [AMIKACIN] — higher, > 256 mg/L
- O=C(O)c1cn(C2CC2)c2cc(N3CCNCC3)c(F)cc2c1=O [CIPROFLOXACIN] — higher, > 32 mg/L
- C[C@@H](O)[C@H]1C(=O)N2C(C(=O)O)=C(SCCNC=N)C[C@H]12 [IMIPENEM ANHYDROUS] — higher, > 32 mg/L
- C[C@@H](O)[C@H]1C(=O)N2C(C(=O)O)=C(S[C@@H]3CN[C@H](C(=O)N(C)C)C3)[C@H](C)[C@H]12 [MEROPENEM] — higher, > 32 mg/L
- CC1(C)[C@H](C(=O)O)N2C(=O)C[C@H]2S1(=O)=O [SULBACTAM] — 16-fold higher, 48 mg/L (≈ 206 µM)
- CN(C)c1cc(NC(=O)CNC(C)(C)C)c(O)c2c1C[C@H]1C[C@H]3[C@H](N(C)C)C(O)=C(C(N)=O)C(=O)[C@@]3(O)C(O)=C1C2=O [TIGECYCLINE] — 2-fold higher, 6 mg/L (≈ 10.2 µM)
- COLISTIN — 6-fold lower, 0.5 mg/L
